{"source": "patent US20230189805A1", "about": "“MULTI-SOLVENT INSECTICIDAL COMPOSITIONS INCLUDING SULFOXIMINE” (CLARKE MOSQUITO CONTROL PRODUCTS, INC., priority 2020, published 2023)", "test_system": "Culex sp. mosquitos", "test": "Laboratory test of samples with and without surfactant against Culex sp. mosquitos", "type": "in vivo", "procedure": "Various amounts of different surfactants were evaluated to determine possible impacts on efficacy. In one set of trials, different amounts of sulfoxaflor were tested with and without a surfactant (Pluronic L92 from BASF).", "key": {"[1]": {"details": "sulfoxaflor 0.5 wt.%, surfactant (Pluronic L92) 20 wt.%"}, "[2]": {"details": "sulfoxaflor 0.5 wt.%, surfactant None"}, "[3]": {"details": "sulfoxaflor 1 wt.%, surfactant None"}}}
{"smiles": "CC(c1ccc(C(F)(F)F)nc1)S(C)(=O)=NC#N", "note": "(centres unmarked) [Sulfoxaflor, sulfoxaflor]", "values": [{"measurement": "1-hour knockdown", "setting": "[1]", "result": 2, "unit": "%"}, {"measurement": "24 hour mortality", "setting": "[1]", "result": 64, "unit": "%"}, {"measurement": "48 hour mortality", "setting": "[1]", "result": 92, "unit": "%"}, {"measurement": "1-hour knockdown", "setting": "[2]", "result": 0, "unit": "%"}, {"measurement": "24 hour mortality", "setting": "[2]", "result": 27, "unit": "%"}, {"measurement": "48 hour mortality", "setting": "[2]", "result": 76, "unit": "%"}, {"measurement": "72 hour mortality", "setting": "[2]", "result": 86, "unit": "%"}, {"measurement": "1-hour knockdown", "setting": "[3]", "result": 18, "unit": "%"}, {"measurement": "24 hour mortality", "setting": "[3]", "result": 62, "unit": "%"}, {"measurement": "48 hour mortality", "setting": "[3]", "result": 94, "unit": "%"}, {"measurement": "72 hour mortality", "setting": "[3]", "result": 98, "unit": "%"}]}
